The test system of this series is rodent lifetime carcinogenesis bioassay, tumor incidence TD50. As to the kind of experiment: carcinogenic potency in animals, long-term in vivo studies, CPDB compilation (AID 1745844).

Molecules are shown by their SMILES. Activity calls are given as the source filed them. The rule behind the calls is not given here.

Regarding `CC(C)(C)NCC(O)c1ccc(O)c(CO)c1` (centres undefined), the TD50 by setting is: (rat, strain Charles River CD (Sprague-Dawley), females, in feed, site: mesovarium, lesion: leiomyoma, dosed 80 weeks, study length 80 weeks) 36.3 mg/kg/day; (rat, strain Charles River CD (Sprague-Dawley), females, in feed, site: mesovarium, lesion: leiomyoma, dosed 104 weeks, study length 104 weeks) 44.6 mg/kg/day.
For `CN(CCc1ccccc1)N=O`, the TD50 (rat, strain Fischer 344, males, in drinking water, site: esophagus, lesion: several types, types named in the paper, dosed 32 weeks, study length 127 weeks) is 0.0401 mg/kg/day; the TD50 (rat, strain Fischer 344, males, in drinking water, site: esophagus, lesion: several types, types named in the paper, dosed 104 weeks, study length 127 weeks) was 0.0422 mg/kg/day; the TD50 (rat, strain Fischer 344, males, in drinking water, site: forestomach, lesion: basal-cell carcinoma, dosed 32 weeks, study length 127 weeks) was 2.57 mg/kg/day; the TD50 (rat, strain Fischer 344, males, in drinking water, site: forestomach, lesion: basal-cell carcinoma, dosed 104 weeks, study length 127 weeks) was 0.0422 mg/kg/day; the TD50 (rat, strain Fischer 344, males, in drinking water, site: forestomach, lesion: basal-cell papilloma, dosed 32 weeks, study length 127 weeks) worked out at 2.21 mg/kg/day; the TD50 (rat, strain Fischer 344, males, in drinking water, site: liver, lesion: hyperplastic nodule, dosed 104 weeks, study length 127 weeks) was 0.184 mg/kg/day. The TD50 was 0.184 mg/kg/day (rat, strain Fischer 344, males, in drinking water, site: tongue, lesion: basal-cell carcinoma, dosed 104 weeks, study length 127 weeks); 0.00788 mg/kg/day (rat, strain Fischer 344, males, in drinking water, site: upper gastrointestinal tract, lesion: several types, types named in the paper, dosed 32 weeks, study length 127 weeks); 0.0136 mg/kg/day (rat, strain Fischer 344, males, in drinking water, site: upper gastrointestinal tract, lesion: several types, types named in the paper, dosed 104 weeks, study length 127 weeks). Besides, the carcinogen call (rat, strain Fischer 344, males, in drinking water, site: tongue, lesion: basal-cell carcinoma, dosed 32 weeks, study length 127 weeks) is “positive”.
In the case of `O=C(O)c1cc(Oc2ccc(C(F)(F)F)cc2Cl)ccc1[N+](=O)[O-]`, the TD50 (mouse, strain B6C3F1, females, in feed, site: liver, lesion: hepatocellular adenoma, dosed 78 weeks, study length 78 weeks) is 434 mg/kg/day; the TD50 (mouse, strain B6C3F1, females, in feed, site: liver, lesion: hepatocellular carcinoma, dosed 78 weeks, study length 78 weeks) was 1380 mg/kg/day; the TD50 (mouse, strain B6C3F1, females, in feed, site: liver, lesion: several types, types named in the paper, dosed 78 weeks, study length 78 weeks) is 328 mg/kg/day; the TD50 (mouse, strain B6C3F1, females, in feed, site: stomach, lesion: papilloma, dosed 78 weeks, study length 78 weeks) was 1050 mg/kg/day; the TD50 (mouse, strain B6C3F1, males, in feed, site: liver, lesion: hepatocellular adenoma, dosed 78 weeks, study length 78 weeks) was 331 mg/kg/day; the TD50 (mouse, strain B6C3F1, males, in feed, site: liver, lesion: hepatocellular carcinoma, dosed 78 weeks, study length 78 weeks) was 395 mg/kg/day. Further, the TD50 is 149 mg/kg/day (mouse, strain B6C3F1, males, in feed, site: liver, lesion: several types, types named in the paper, dosed 78 weeks, study length 78 weeks); 2050 mg/kg/day (mouse, strain B6C3F1, males, in feed, site: stomach, lesion: papilloma, dosed 78 weeks, study length 78 weeks); 160 mg/kg/day (mouse, strain Charles River CD1, females, in feed, site: liver, lesion: hepatocellular adenoma, dosed 104 weeks, study length 104 weeks); 715 mg/kg/day (mouse, strain Charles River CD1, females, in feed, site: liver, lesion: hepatocellular carcinoma, dosed 104 weeks, study length 104 weeks); 126 mg/kg/day (mouse, strain Charles River CD1, females, in feed, site: liver, lesion: several types, types named in the paper, dosed 104 weeks, study length 104 weeks); 187 mg/kg/day (mouse, strain Charles River CD1, males, in feed, site: liver, lesion: hepatocellular adenoma, dosed 104 weeks, study length 104 weeks). The TD50 reads like this: (mouse, strain Charles River CD1, males, in feed, site: liver, lesion: hepatocellular carcinoma, dosed 104 weeks, study length 104 weeks) 307 mg/kg/day; (mouse, strain Charles River CD1, males, in feed, site: liver, lesion: several types, types named in the paper, dosed 104 weeks, study length 104 weeks) 93.8 mg/kg/day.
On to `ClCC(Cl)(Cl)Cl`, for which the TD50 is 110 mg/kg/day (mouse, strain B6C3F1, females, by gavage, site: any site (literature study), lesion: several types, types named in the paper, dosed 103 weeks, study length 104 weeks); 175 mg/kg/day (mouse, strain B6C3F1, females, by gavage, site: liver, lesion: hepatocellular adenoma + hepatocellular carcinoma + neoplastic nodule, dosed 103 weeks, study length 104 weeks); 175 mg/kg/day (mouse, strain B6C3F1, females, by gavage, site: liver, lesion: hepatocellular adenoma + hepatocellular carcinoma, dosed 103 weeks, study length 104 weeks); 254 mg/kg/day (mouse, strain B6C3F1, females, by gavage, site: liver, lesion: hepatocellular adenoma, dosed 103 weeks, study length 104 weeks); 640 mg/kg/day (mouse, strain B6C3F1, females, by gavage, site: liver, lesion: hepatocellular carcinoma, dosed 103 weeks, study length 104 weeks); 1820 mg/kg/day (mouse, strain B6C3F1, females, by gavage, site: lung, lesion: alveolar/bronchiolar adenoma + alveolar/bronchiolar carcinoma, dosed 103 weeks, study length 104 weeks). Moreover, the TD50 is 97.9 mg/kg/day (mouse, strain B6C3F1, males, by gavage, site: any site (literature study), lesion: several types, types named in the paper, dosed 103 weeks, study length 104 weeks); 124 mg/kg/day (mouse, strain B6C3F1, males, by gavage, site: liver, lesion: hepatocellular adenoma + hepatocellular carcinoma + neoplastic nodule, dosed 103 weeks, study length 104 weeks); 124 mg/kg/day (mouse, strain B6C3F1, males, by gavage, site: liver, lesion: hepatocellular adenoma + hepatocellular carcinoma, dosed 103 weeks, study length 104 weeks); 190 mg/kg/day (mouse, strain B6C3F1, males, by gavage, site: liver, lesion: hepatocellular adenoma, dosed 103 weeks, study length 104 weeks); 1330 mg/kg/day (mouse, strain B6C3F1, males, by gavage, site: lung, lesion: alveolar/bronchiolar adenoma + alveolar/bronchiolar carcinoma, dosed 103 weeks, study length 104 weeks); 3980 mg/kg/day (rat, strain Fischer 344, females, by gavage, site: liver, lesion: hepatocellular adenoma + hepatocellular carcinoma + neoplastic nodule, dosed 103 weeks, study length 104 weeks). Also, the TD50 by setting is: (rat, strain Fischer 344, females, by gavage, site: mammary gland, lesion: fibroadenoma, dosed 103 weeks, study length 104 weeks) 170 mg/kg/day (inactive); (rat, strain Fischer 344, males, by gavage, site: any site (literature study), lesion: several types, types named in the paper, dosed 103 weeks, study length 104 weeks) 464 mg/kg/day; (rat, strain Fischer 344, males, by gavage, site: liver, lesion: hepatocellular adenoma + hepatocellular carcinoma + neoplastic nodule, dosed 103 weeks, study length 104 weeks) 1130 mg/kg/day; (rat, strain Fischer 344, males, by gavage, site: multiple organs + peritoneum + tunica vaginalis, lesion: mesothelioma, malignant + mesothelioma, NOS, dosed 103 weeks, study length 104 weeks) 842 mg/kg/day (inactive).
Turning to `CCOC(=O)[C@H](CCc1ccccc1)N[C@@H](C)C(=O)N1Cc2ccccc2C[C@H]1C(=O)O`, the TD50 was 8160 mg/kg/day (inactive) (mouse, strain B6C3F1, females, by gavage, site: any site (literature study), lesion: several types, types named in the paper, dosed 104 weeks, study length 104 weeks); 966 mg/kg/day (inactive) (mouse, strain B6C3F1, females, by gavage, site: liver, lesion: hepatocellular carcinoma, dosed 104 weeks, study length 104 weeks); 5070 mg/kg/day (inactive) (mouse, strain B6C3F1, females, by gavage, site: lung, lesion: adenoma, dosed 104 weeks, study length 104 weeks); 128 mg/kg/day (inactive) (mouse, strain B6C3F1, females, by gavage, site: pituitary gland, lesion: adenoma, dosed 104 weeks, study length 104 weeks); 221 mg/kg/day (inactive) (mouse, strain B6C3F1, males, by gavage, site: any site (literature study), lesion: several types, types named in the paper, dosed 104 weeks, study length 104 weeks); 623 mg/kg/day (inactive) (mouse, strain B6C3F1, males, by gavage, site: liver, lesion: hepatocellular adenoma, dosed 104 weeks, study length 104 weeks). Also, the TD50 reads like this: (mouse, strain B6C3F1, males, by gavage, site: liver, lesion: hepatocellular carcinoma, dosed 104 weeks, study length 104 weeks) 1640 mg/kg/day (inactive); (mouse, strain B6C3F1, males, by gavage, site: lung, lesion: adenoma, dosed 104 weeks, study length 104 weeks) 2790 mg/kg/day (inactive); (mouse, strain B6C3F1, males, by gavage, site: lung, lesion: carcinoma, dosed 104 weeks, study length 104 weeks) 2810 mg/kg/day (inactive). The carcinogen call reads like this: (mouse, strain B6C3F1, females, by gavage, site: liver, lesion: hepatocellular adenoma, dosed 104 weeks, study length 104 weeks) “negative (inactive)”; (rat, strain Wistar, females, by gavage, site: any site (literature study), lesion: several types, types named in the paper, dosed 104 weeks, study length 104 weeks) “negative (inactive)”; (rat, strain Wistar, females, by gavage, site: liver, lesion: several types, types named in the paper, dosed 104 weeks, study length 104 weeks) “negative (inactive)”; (rat, strain Wistar, males, by gavage, site: any site (literature study), lesion: several types, types named in the paper, dosed 104 weeks, study length 104 weeks) “negative (inactive)”; (rat, strain Wistar, males, by gavage, site: liver, lesion: several types, types named in the paper, dosed 104 weeks, study length 104 weeks) “negative (inactive)”.
Take `CCCCCCCC/C=C\CCCCCCCC(=O)O`: the carcinogen call is, setting by setting: (rat, strain F344/DuCrj, females, in drinking water, site: any site (literature study), lesion: several types, types named in the paper, dosed 108 weeks, study length 108 weeks) “negative (inactive)”; (rat, strain F344/DuCrj, females, in drinking water, site: liver, lesion: hyperplastic nodule, dosed 108 weeks, study length 108 weeks) “negative (inactive)”; (rat, strain F344/DuCrj, males, in drinking water, site: any site (literature study), lesion: several types, types named in the paper, dosed 108 weeks, study length 108 weeks) “negative (inactive)”. Also, the TD50 was 29100 mg/kg/day (inactive) (rat, strain F344/DuCrj, males, in drinking water, site: liver, lesion: hyperplastic nodule, dosed 108 weeks, study length 108 weeks); 39300 mg/kg/day (inactive) (rat, strain F344/DuCrj, males, in drinking water, site: liver, lesion: several types, types named in the paper, dosed 108 weeks, study length 108 weeks); 12600 mg/kg/day (inactive) (rat, strain F344/DuCrj, males, in drinking water, site: pancreas, lesion: insuloma, dosed 108 weeks, study length 108 weeks); 10100 mg/kg/day (inactive) (rat, strain F344/DuCrj, males, in drinking water, site: pancreas, lesion: several types, types named in the paper, dosed 108 weeks, study length 108 weeks).
For `O=[N+]([O-])c1cccc2ccccc12`, the carcinogen call (mouse, strain B6C3F1, females, in feed, site: any site (literature study), lesion: several types, types named in the paper, dosed 78 weeks, study length 96 weeks) is “negative (inactive)”; the carcinogen call (mouse, strain B6C3F1, males, in feed, site: any site (literature study), lesion: several types, types named in the paper, dosed 78 weeks, study length 96 weeks) was “negative (inactive)”; the carcinogen call (rat, strain Fischer 344, females, in feed, site: any site (literature study), lesion: several types, types named in the paper, dosed 78 weeks, study length 107 weeks) is “negative (inactive)”; the carcinogen call (rat, strain Fischer 344, males, in feed, site: any site (literature study), lesion: several types, types named in the paper, dosed 78 weeks, study length 107 weeks) is “negative (inactive)”. Also, the TD50 (mouse, strain B6C3F1, females, in feed, site: lung, lesion: alveolar/bronchiolar adenoma + alveolar/bronchiolar carcinoma, dosed 78 weeks, study length 96 weeks) was found to be 682 mg/kg/day and the TD50 (rat, strain Fischer 344, males, in feed, site: liver, lesion: hepatocellular adenoma + hepatocellular carcinoma + neoplastic nodule, dosed 78 weeks, study length 107 weeks) was determined as 509 mg/kg/day.
